Patent publication US12622925B2 (priority 2018, dated 2026)

Test system: Hydra vulgaris
Assay type: in vivo
Conditions: results in 100% hydra mortality in 92 h
Experimental: Hydra vulgaris were obtained from Environment Canada (Montreal, Qc) and maintained at 18° C. The hydra classification method (Wilby, O. K., Tesh, J. M., & Shore, P. R., 1990) was used with modification to rate morphology of the adult hydra as an indicator of solution toxicity. In this assay, the scoring of hydra morphology is objective and repeatable with representation in detail in previous literature. The assay included monitoring times at shorter intervals during the first two days (0, 4, 20, and 28 h) and 24 h intervals for the last three days (44, 68, and 92 h). Solutions were not changed during testing. The hydra morphological response was scored and recorded after exposure of toxin with and without sorbent treatment. Mature and non-budding hydra in similar sizes were chosen for testing in order to minimize differences between samples. Controls for this experiment included hydra media. […] The score or average toxicity rating was determined by calculating the average score for morphological changes for a certain group at a specific time point.
FIG. 2 is a depiction of the hydra morphology scale by Wilby (1988): The scale is graded from 0-10, where 10 represents a normal living hydra and 0 represents a disintegrated hydra. The physiologic conditions of hydra were assessed with a dissecting microscope.

In the case of `C[C@H]1CCCC(=O)CCC/C=C/c2cc(O)cc(O)c2C(=O)O1` [ZEN, zearalenone], the “minimal effective concentration (MEC)” value is reported as 4 ppm.
